Patent US20260263603A1, “PRODRUGS, PRODRUG COMPOSITIONS AND RELATED METHODS” (Praesidia Biotherapeutics Inc., priority 2023, published 2026)
Read-outs that look alike come from different tables or passages of the source.

How the values were obtained:
[1] = 37° C., 5 μM; for Chemical Stability, pH 4.5: pH 4.5 PBS; for Chemical Stability, pH 7.4: pH 7.4 PBS
Method: Chemical stability of the prodrug compounds was tested at pH 4.5 and pH 7.4 (pH adjusted in phosphate buffer saline). Both buffer solutions at two pHs were prepared in house. 2 μL of 500 μM stock solution of the prodrug was added to each vial containing 198 μL PBS at pH 7.4 or pH 4.5 and mixed evenly. The assay was performed in duplicate. The final concentration of the test compound was 5 μM. samples were incubated at 37° C. at 600 rpm. […] Samples from individual vials were used for the different time points. The samples were vortexed for 2 minutes and centrifuged at 3,220 g for 5 minutes at 4° C. […] of the supernatant was transferred to a new plate.

in vitro [2] = details: for half-life at 5 μM: plasma; for Human Plasma Stability t½ min: 37° C., 5 μM, t½ > 240 min considered stable
Method: Rat and human plasma were obtained from qualified vendors. […] The assay was performed in duplicate.

in vitro [3] = details: 0.5 mg microsome/mL, 1 mM NADPH; for Rat liver microsomal stability (RLM) t½ min: 1 uM
Method: Precipitated proteins were removed by centrifugation, followed by withdrawing and diluting the supernatant for analysis. Two positive controls and negative controls (without NADPH) were used in the study. All samples were analyzed in duplicates. LC/MS/MS was performed for detection and quantification of the test compounds. Linear regression was determined using the remaining percentage of the parent drug at each incubation time and t1/2 value was calculated.

[4] = target: Glucocorticoid receptor (GR) (Homo sapiens, UniProt P04150)
Method: Glucocorticoid receptor (GR) binding of prodrugs was determined using TR-FRET GR competitive binding assay. Three-point (0.1, 1 and 10 μM) binding was evaluated for each prodrug.

in vitro [5] = details: human, Caco-2, pH 7.4
Method: The objective of this study was to evaluate the bidirectional permeability and absorption mechanisms of the test compounds. CaCO-2 cells were cultured, and a monolayer was developed in-house in 96 well-plates over 18 days using standard protocol. The monolayer was tested for the integrity of the cell monolayer before using.
Test compounds were added to the transwell insert (apical compartment) to determine the rate of drug transport in the apical to basolateral direction. To determine the rate of drug transport in the basolateral to apical direction, the test compound was added to the receiver plate wells (basolateral compartment). Appropriate amount of HBSS (10 mM HEPES, pH 7.4) was added in both compartments for a final volume of 200 μL. The plates were incubated at 37° C. with shaking at 150 rpm on a rotary shaker for 2 hours. At the end of the transport period, 50 μL from the apical and basolateral wells were collected and 4 volume of cold acetonitrile containing internal standards (IS: 100 nM alprazolam, 200 nM labetalol, and 2 μM ketoprofen) was added to each sample to terminate the reaction. The samples were vortexed and centrifuged at 3,800 g for 20 minutes. An aliquot of 150 μL of the supernatant was used for LC/MS/MS analysis. All samples were analyzed in duplicates. Samples were analyzed through LC/MS/MS for estimating the permeability and efflux of the compounds across Caco-2 cell monolayers.

in vitro [6] = details: dog, MDCK

Sequence of Glucocorticoid receptor (GR) (P04150 whole entry, species assumed): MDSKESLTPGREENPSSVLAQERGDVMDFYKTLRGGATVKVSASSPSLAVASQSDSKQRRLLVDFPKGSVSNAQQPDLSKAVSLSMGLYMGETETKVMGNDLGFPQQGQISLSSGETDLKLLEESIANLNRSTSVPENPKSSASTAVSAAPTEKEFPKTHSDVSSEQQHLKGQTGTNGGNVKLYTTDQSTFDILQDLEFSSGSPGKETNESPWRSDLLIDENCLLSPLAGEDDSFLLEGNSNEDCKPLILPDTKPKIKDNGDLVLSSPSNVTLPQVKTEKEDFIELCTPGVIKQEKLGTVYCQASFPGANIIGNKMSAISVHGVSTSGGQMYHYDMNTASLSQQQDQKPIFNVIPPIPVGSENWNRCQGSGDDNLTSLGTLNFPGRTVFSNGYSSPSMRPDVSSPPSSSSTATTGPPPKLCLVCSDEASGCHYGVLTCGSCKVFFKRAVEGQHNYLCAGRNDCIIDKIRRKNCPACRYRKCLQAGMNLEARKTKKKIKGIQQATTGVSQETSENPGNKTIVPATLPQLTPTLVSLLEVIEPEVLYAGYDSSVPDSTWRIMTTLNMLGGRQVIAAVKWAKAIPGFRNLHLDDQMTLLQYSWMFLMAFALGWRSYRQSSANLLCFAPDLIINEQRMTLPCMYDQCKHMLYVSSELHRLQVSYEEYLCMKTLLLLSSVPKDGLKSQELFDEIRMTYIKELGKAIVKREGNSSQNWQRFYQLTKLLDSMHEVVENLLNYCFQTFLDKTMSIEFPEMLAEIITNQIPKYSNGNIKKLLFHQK

## C[C@@H]1C[C@H]2[C@@H]3CCC4=CC(=O)C=C[C@]4(C)[C@@]3(F)[C@@H](O)C[C@]2(C)[C@@]1(O)/C(CO)=N\NC(=O)C(N)Cc1ccccc1 (single isomer, unassigned) [Compound IIIA]
[1]
  Chemical Stability, pH 4.5: Yes
  Chemical Stability, pH 7.4: Yes
In vitro [2]; human
  half-life at 5 μM: > 4 h
In vitro [2]; rat
  half-life at 5 μM: > 4 h
In vitro [3]
  Rat liver microsomal stability (RLM) t½ min: 0.55 h

## C[C@@H]1C[C@H]2[C@@H]3CCC4=CC(=O)C=C[C@]4(C)[C@@]3(F)[C@@H](O)C[C@]2(C)[C@@]1(O)/C(CO)=N\NC(=O)C(N)Cc1ccccc1 (single isomer, unassigned) [Compound IIIB]
[1]
  Chemical Stability, pH 4.5: Yes
  Chemical Stability, pH 7.4: Yes
In vitro [2]
  Human Plasma Stability t½ min: >4 h
In vitro [3]
  Rat liver microsomal stability (RLM) t½ min: 1.35 h
[4]; @ 0.1 uM
  GR Binding Data: 8%
[4]; @ 1 uM
  GR Binding Data: 8%
[4]; @ 10 uM
  GR Binding Data: 68%

## CC(C)C(N)C(=O)N/N=C(/CO)[C@@]1(O)[C@H](C)C[C@H]2[C@@H]3CCC4=CC(=O)C=C[C@]4(C)[C@@]3(F)[C@@H](O)C[C@@]21C (single isomer, unassigned) [Compound IVA]
[1]
  Chemical Stability, pH 4.5: Yes
  Chemical Stability, pH 7.4: Yes
In vitro [2]; human
  half-life at 5 μM: > 4 h
In vitro [2]; rat
  half-life at 5 μM: > 4 h
In vitro [3]
  Rat liver microsomal stability (RLM) t½ min: 0.583 h
[4]; @ 0.1 uM
  GR Binding Data: 4%
[4]; @ 1 uM
  GR Binding Data: 8%
[4]; @ 10 uM
  GR Binding Data: 64%
In vitro [5]
  Papp A→B at 2 h: 2 nm/s
  Papp B→A at 2 h: 40 nm/s

## CC(C)C(N)C(=O)N/N=C(/CO)[C@@]1(O)[C@H](C)C[C@H]2[C@@H]3CCC4=CC(=O)C=C[C@]4(C)[C@@]3(F)[C@@H](O)C[C@@]21C (single isomer, unassigned) [Compound IVB]
[1]
  Chemical Stability, pH 4.5: Yes
  Chemical Stability, pH 7.4: Yes
In vitro [2]
  Human Plasma Stability t½ min: >4 h
In vitro [3]
  Rat liver microsomal stability (RLM) t½ min: 1.8 h
[4]; @ 0.1 uM
  GR Binding Data: 3%
[4]; @ 1 uM
  GR Binding Data: 16%
[4]; @ 10 uM
  GR Binding Data: 72%

## CC(C)C(N)C(=O)N/N=C1\C=C[C@@]2(C)C(=C1)CC[C@H]1[C@@H]3C[C@@H](C)[C@](O)(C(=O)CO)[C@@]3(C)C[C@H](O)[C@@]12F (single isomer, unassigned) [Compound VA]
[1]
  Chemical Stability, pH 4.5: Yes
  Chemical Stability, pH 7.4: Yes
In vitro [2]; rat
  half-life at 5 μM: > 4 h
In vitro [3]; rat, liver microsomes, Rat liver microsomal stability (RLM) t½ min
  half-life at 1 uM: 0.733 h

## CC(C)C(N)C(=O)N/N=C1\C=C[C@@]2(C)C(=C1)CC[C@H]1[C@@H]3C[C@@H](C)[C@](O)(C(=O)CO)[C@@]3(C)C[C@H](O)[C@@]12F (single isomer, unassigned) [Compound VB]
[1]
  Chemical Stability, pH 4.5: Yes
  Chemical Stability, pH 7.4: Yes

## CCC(=O)N/N=C(\CO)[C@@]1(O)[C@H](C)C[C@H]2[C@@H]3CCC4=CC(=O)C=C[C@]4(C)[C@@]3(F)[C@@H](O)C[C@@]21C [Compound II]
[1]
  Chemical Stability, pH 4.5: Yes
  Chemical Stability, pH 7.4: Yes
In vitro [2]; human
  half-life at 5 μM: > 4 h

## C[C@@H]1C[C@H]2[C@@H]3CCC4=C/C(=N/NC(=O)[C@H](Cc5ccccc5)N(C)C)C=C[C@]4(C)[C@@]3(F)[C@@H](O)C[C@]2(C)[C@@]1(O)C(=O)CO [Compound IXA]
In vitro [2]; rat
  half-life at 5 μM: > 4 h

## C[C@@H]1C[C@H]2[C@@H]3CCC4=C/C(=N\NC(=O)[C@H](Cc5ccccc5)N(C)C)C=C[C@]4(C)[C@@]3(F)[C@@H](O)C[C@]2(C)[C@@]1(O)C(=O)CO [Compound IXB]
In vitro [2]; rat
  half-life at 5 μM: > 4 h

## CCC(=O)N/N=C1\C=C[C@@]2(C)C(=C1)CC[C@H]1[C@@H]3C[C@@H](C)[C@](O)(C(=O)CO)[C@@]3(C)C[C@H](O)[C@@]12F [Compound I]
[1]
  Chemical Stability, pH 4.5: Yes
  Chemical Stability, pH 7.4: Yes
In vitro [2]; human
  half-life at 5 μM: > 4 h

## C[C@@H]1C[C@H]2[C@@H]3CCC4=C/C(=N/NC(=O)[C@@H](N)Cc5ccccc5)C=C[C@]4(C)[C@@]3(F)[C@@H](O)C[C@]2(C)[C@@]1(O)C(=O)CO [Compound VIIA]
[1]
  Chemical Stability, pH 4.5: Yes
  Chemical Stability, pH 7.4: Yes
In vitro [2]; rat
  half-life at 5 μM: > 4 h
In vitro [5]
  Papp A→B at 2 h: 1.7 nm/s
  Papp B→A at 2 h: 110 nm/s
In vitro [6]
  Papp A→B: 1.5 nm/s
  Papp B→A: 12.9 nm/s

## C[C@@H]1C[C@H]2[C@@H]3CCC4=C/C(=N\NC(=O)[C@@H](N)Cc5ccccc5)C=C[C@]4(C)[C@@]3(F)[C@@H](O)C[C@]2(C)[C@@]1(O)C(=O)CO [Compound VIIB]
[1]
  Chemical Stability, pH 4.5: Yes
  Chemical Stability, pH 7.4: Yes
In vitro [2]; rat
  half-life at 5 μM: > 4 h
In vitro [5]
  Papp A→B at 2 h: 1.3 nm/s
  Papp B→A at 2 h: 90 nm/s
In vitro [6]
  Papp A→B: 1.2 nm/s
  Papp B→A: 8.7 nm/s

## C[C@@H]1C[C@H]2[C@@H]3CCC4=C/C(=N\NC(=O)[C@H](N)Cc5ccccc5)C=C[C@]4(C)[C@@]3(F)[C@@H](O)C[C@]2(C)[C@@]1(O)C(=O)CO [Compound VIIIB]
In vitro [2]; rat
  half-life at 5 μM: > 4 h
[4]; @ 0.1 uM
  GR Binding Data: 19%
[4]; @ 1 uM
  GR Binding Data: 26%
[4]; @ 10 uM
  GR Binding Data: 72%

## C[C@@H]1C[C@H]2[C@@H]3CCC4=C/C(=N/NC(=S)[C@@H](N)Cc5ccccc5)C=C[C@]4(C)[C@@]3(F)[C@@H](O)C[C@]2(C)[C@@]1(O)C(=O)CO [Compound X]
In vitro [2]; rat
  half-life at 5 μM: 2.08 h
In vitro [5]
  Papp A→B at 2 h: 3.3 nm/s
  Papp B→A at 2 h: 40 nm/s
In vitro [6]
  Papp A→B: < 1.7 nm/s
  Papp B→A: 18.2 nm/s

## C[C@@H]1C[C@H]2[C@@H]3CCC4=CC(=O)C=C[C@]4(C)[C@@]3(F)[C@@H](O)C[C@]2(C)[C@@]1(O)C(=O)CO [Dexamethasone, reference compound]
[4]; @ 1 nM
  GR Binding Data: 16%
[4]; @ 10 nM
  GR Binding Data: 50%
[4]; @100 nM
  GR Binding Data: 93%
